“Also recorded” adds a separate entry of the source.
Assays:
[1] = Compound plasma levels in mice under Alzet pump infusion; type: in vivo, C57BL/6 mice; settings: C57BL/6, mouse, other: Alzet pump infusion (perfused), 25 µg/hr, mean±s.e.m., read-out: level of the compound in plasma
Experimental: Compound levels were measured by MS/MS by Quintara (Hayward, Calif.).
FIG. 6 depicts the levels of the compound of the invention that were detected in mouse CSF for both the young and old groups (both below 10 nM).

[2] = system: two-month-old C57Bl/6 mice treated with rmCCL11; experiment: Open Field test in young mice given recombinant mouse CCL11; type: in vivo; settings: 2-month-old mice; rmCCL11 i.p.; Compound 1 30 mg/kg p.o. b.i.d., 2 weeks
Experimental: Open Field is used to evaluate general locomotor activity and exploratory behavior in a novel environment. Mice are brought to the experimental room for at least 30 min for acclimation to the experimental room conditions (dim lighting) prior to testing. The testing arena consists of a 50 cm×50 cm square arena. Mice are placed in the center of an arena and tracked for 15 minutes. Time spent in the peripheral and centers zones is analyzed, along with rearing behavior. 70% ethanol is used to clean all surfaces between trials.
[…] During the last week of treatment, mice were subjected to behavior testing prior to perfusion on the last day of treatment. All mice received 5 consecutive days of BrdU injection at 150 mg/kg IP immediately prior to treatment start. […]

[3] = system: CD68+ activated microglia; experiment: IHC of CD68+ activated microglia in hippocampus of aged mice; type: in vivo, C57Bl/6 mice; settings: 23-month-old mice, 30 mg/kg SQ BID 21 days
Source text: (§1) Mice were taken down on the day following the end of behavior testing. Anesthesia was induced by 2,2,2-tribromoethanol and mice were subsequently perfused with 0.9% saline trans-cardially. The brains were dissected and cut sagitally in two even halves. One half was snap frozen for later use in dry ice, and the other was fixed in 4% paraformaldehyde in PBS for use in immunohistochemistry. After two days of fixation, the hemibrains were transferred to a 30% sucrose in PBS solution and changed after two days. Hemibrains were sectioned at 30 um on a microtome at −22° C. Brain sections were stored in cryoprotectant media at −20° C. until needed for staining. Blocking was done on free floating sections in the appropriate serum at 10% serum in PBST 0.5%. Primary antibodies were incubated overnight at 4 C. For light microscopy, the following antibodies were used in the given concentrations: DCX, 1:200, Santa Cruz BioTech, CD68, 1:1000. AbD Serotec. Secondary biotinylated antibodies were applied the next day at a concentration of 1:300. Staining visualization was achieved by reaction with the ABC kit (Vector) and diaminobenzidine (Sigma). Dehydration of the mounted slides was achieved using ethanol and xylene dips. Images were acquired on a Leica light microscope at 5× magnification.
23-month-old C57Bl/6 mice were dosed with either vehicle control or Compound 1 subcutaneously twice daily for 21 days. […]

[4] = system: twenty-four-month-old C57 mice; experiment: Rotarod test for motor coordination in aged mice; type: in vivo; settings: 4 weeks continuous infusion by osmotic pump
Experimental: The mice were trained in the rotarod for 3 trials up to 100 seconds each, the rotarod being a test of motor coordination. Success or failure was recorded on the last trial, with success defined by a latency to fall of >90 seconds. A binomial test was conducted to compare success rates between control and compound-treated mice.
Twenty-four-month-old C57 mice were treated for 4 weeks with continuous infusion of Compound 1 or vehicle by Alzet osmotic pump, which were implanted to continuously deliver the two treatments.
Treatment Groups: • Treatment Group 1, Old Controls: Aged C57BL/6 mice (n=15), aged 23 months, received infusion of vehicle by Alzet mini-pump, model 2002 (0.5 uL/hr), for four weeks with one replacement. • Treatment Group 2, Compound 1 (dose 2) in Old: Aged C57BL/6 mice (n=15), aged 23 months, received infusion of ˜50 mg/ml Compound 1 by Alzet mini-pump, model 2002 (0.5 uL/hr), for four weeks with one replacement.

[5] = system: CD68+ activated microglia; experiment: IHC of CD68+ activated microglia in hippocampus of mice given daily LPS; type: in vivo, C57Bl/6 mice; settings: 3-month-old mice, daily LPS IP 7 weeks, 30 mg/kg PO BID 4 weeks
Source text: as §1, with “magnification. […]” for “magnification.”

concentration at 4 weeks ([1]; old (18-month) mice perfused 4 weeks at 0.5 μL/hr of 50 mg/mL solution): 355 ± 43 nM
concentration at 2 weeks ([1]; young (2-month-old) mice perfused 2 weeks at 0.5 μL/hr of 50 mg/mL solution): 352 ± 31 nM
Structure (SMILES): Cc1cc(C(=O)N(C)C)cc(NC(=O)[C@H]2CCC(=O)N2C2CCN(Cc3ccc(Cl)c(C)c3)CC2)n1 [Compound 1]
anxiety in the Open Field [2]: improved anxiety
CD68+ activated microglia in the hippocampus [3]: strong trend towards decreased microgliosis; also recorded: trend lower
proportion of mice able to stay on the rod for longer than 90 seconds ([4]; control 20%): 47%
Rotarod success versus vehicle (binomial test) ([4]; success = latency to fall >90 seconds): succeeded more than vehicle-treated mice
CD68+ immunoreactivity (activated microglia) in hippocampus [5]: dramatically decreased CD68+ immunoreactivity; also recorded: robust trend towards decrease

From patent publication US11382907B2, “Methods and compositions for treating aging-associated impairments using CCR3-inhibitors” (Alkahest, Inc., priority 2017, dated 2022)
